One test relates to BXPC-3. Briefly: Antiproliferative activity against human BXPC-3 cells assessed as reduction in cell viability measured for 72 hrs by CCK-8 assay. It is filed as functional, cell-based. The following applies: BXPC-3, 72 h. For orientation: Formazan colour is commonly taken as a measure of viable cells.
Another test has as its target Spermine oxidase (Homo sapiens, UniProt Q9NWM0). Briefly: Inhibition of SMOX (unknown origin) using spermine as substrate preincubated for 1 hr followed by substrate addition and measured after 20 mins by luminometer analysis.
The target in test [1] is Lysine-specific histone demethylase 1A (Homo sapiens) (UniProt O60341). Put plainly: Inhibition of LSD1 (unknown origin) at 10 uM relative to control.
In the next test the test system is MIA PaCa-2. Put plainly: Antiproliferative activity against human MIA PaCa-2 cells assessed as reduction in cell viability incubated for 24 hrs by CCK-8 assay. It is filed as functional, cell-based. The conditions noted are these: MIA PaCa-2, 24 h.
For test [2], the target named is T1, Histone-lysine N-methyltransferase EHMT2 (Homo sapiens, UniProt Q96KQ7).
T1 sequence (Q96KQ7 whole entry): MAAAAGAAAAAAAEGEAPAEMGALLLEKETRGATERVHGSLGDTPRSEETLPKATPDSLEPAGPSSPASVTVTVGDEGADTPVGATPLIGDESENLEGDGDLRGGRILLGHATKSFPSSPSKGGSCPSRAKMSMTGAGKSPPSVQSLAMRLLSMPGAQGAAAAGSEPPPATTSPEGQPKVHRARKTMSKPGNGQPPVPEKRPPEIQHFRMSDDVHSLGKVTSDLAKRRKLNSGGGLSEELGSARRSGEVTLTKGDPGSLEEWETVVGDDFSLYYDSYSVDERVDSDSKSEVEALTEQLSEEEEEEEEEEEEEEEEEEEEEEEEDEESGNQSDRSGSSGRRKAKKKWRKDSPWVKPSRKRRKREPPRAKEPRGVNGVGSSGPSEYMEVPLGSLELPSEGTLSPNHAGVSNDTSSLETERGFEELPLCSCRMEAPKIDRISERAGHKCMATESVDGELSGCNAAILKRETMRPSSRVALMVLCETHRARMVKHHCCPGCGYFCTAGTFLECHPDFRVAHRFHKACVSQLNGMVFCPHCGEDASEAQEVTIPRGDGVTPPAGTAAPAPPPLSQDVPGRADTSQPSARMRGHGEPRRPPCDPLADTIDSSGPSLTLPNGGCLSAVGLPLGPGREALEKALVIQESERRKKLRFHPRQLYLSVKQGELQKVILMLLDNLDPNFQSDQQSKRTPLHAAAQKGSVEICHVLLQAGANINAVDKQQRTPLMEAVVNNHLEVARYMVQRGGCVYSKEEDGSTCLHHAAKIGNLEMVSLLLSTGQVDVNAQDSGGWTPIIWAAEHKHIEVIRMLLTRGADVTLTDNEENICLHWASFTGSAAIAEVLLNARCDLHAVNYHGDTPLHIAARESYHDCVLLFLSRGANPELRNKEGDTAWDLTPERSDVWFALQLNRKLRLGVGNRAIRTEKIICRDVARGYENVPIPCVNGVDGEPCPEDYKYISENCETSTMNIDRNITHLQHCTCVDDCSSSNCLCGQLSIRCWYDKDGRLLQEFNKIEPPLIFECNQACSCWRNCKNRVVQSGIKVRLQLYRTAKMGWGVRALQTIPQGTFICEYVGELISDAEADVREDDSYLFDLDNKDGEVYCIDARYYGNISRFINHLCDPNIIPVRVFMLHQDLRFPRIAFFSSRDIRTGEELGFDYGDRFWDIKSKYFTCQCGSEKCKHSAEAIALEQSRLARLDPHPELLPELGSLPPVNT
Briefly: Inhibition of human G9a expressed in HEK293 cells. It is filed as cell-based.

Test [3] is described as follows: Inhibition of DCN1 (unknown origin) by TR-FRET analysis. The arrangement: species or system Homo sapiens. For orientation: Time-resolved FRET reads energy transfer from a long-lived donor to a nearby acceptor.
Another test concerns SGC-7901. Put plainly: cells. The following applies: Homo sapiens, SGC-7901, 72 h.
Another test deals with BGC-823. Put plainly: cells. The following applies: Homo sapiens, BGC-823, 72 h.
In a further test the test system is MGC-803. Briefly: cells. The following applies: Homo sapiens, MGC-803, 72 h.
A further test has as its system NCI-H1975. Put plainly: Antiproliferative activity against human NCI-H1975 cells assessed as reduction in cell viability incubated for 48 hrs by MTT assay. The following applies: NCI-H1975, 48 h.
Another test relates to Jurkat. Briefly: Antiproliferative activity against human Jurkat cells assessed as reduction in cell viability incubated for 48 hrs by cell titer-glo assay. It is filed as functional, cell-based. In general terms: In ATP-based viability assays light output follows the ATP content of the culture.
In the next test the test system is K562. Put plainly: Antiproliferative activity against human K562 assessed as reduction in cell growth incubated for 48 hrs by MTT assay. It is filed as functional, cell-based. The conditions noted are these: K562, 48 h.
For a further test, the system named is THP-1. Briefly: Antiproliferative activity against human THP-1 cells incubated for 24 hrs by trypan blue reagent based analysis. It is filed as functional, cell-based. The conditions noted are these: THP-1, 24 h.
The subject of another test is MOLM-13. Briefly: Antiproliferative activity against human MOLM-13 assessed as reduction in cell growth incubated for 48 hrs by MTT assay. The following applies: MOLM-13, 48 h. It is filed as functional, cell-based.
A further test has as its system MCF7. Put plainly: Antiproliferative activity against human MCF7 cells assessed as reduction in cell viability by MTT assay. It is filed as functional, cell-based.
In a further test the test system is DU-145. Briefly: Antiproliferative activity against human DU-145 cells assessed as cell growth inhibition. It is filed as functional, cell-based.
The next test relates to PC-3. Briefly: Growth inhibition of human PC-3 cells assessed as reduction in cell viability by SRB assay. It is filed as functional. The conditions noted are these: time 48 hrs.

Among the data in ChEMBL document CHEMBL5335824, “Research progress of LSD1-based dual-target agents for cancer therapy” (Bioorg Med Chem, 2024) are IC50, inhibition and GI50 values, retold here.

Structures are written as SMILES. Where only a bound is given, the exact number is not on record here.

Chain of Spermine oxidase (Q9NWM0 whole entry): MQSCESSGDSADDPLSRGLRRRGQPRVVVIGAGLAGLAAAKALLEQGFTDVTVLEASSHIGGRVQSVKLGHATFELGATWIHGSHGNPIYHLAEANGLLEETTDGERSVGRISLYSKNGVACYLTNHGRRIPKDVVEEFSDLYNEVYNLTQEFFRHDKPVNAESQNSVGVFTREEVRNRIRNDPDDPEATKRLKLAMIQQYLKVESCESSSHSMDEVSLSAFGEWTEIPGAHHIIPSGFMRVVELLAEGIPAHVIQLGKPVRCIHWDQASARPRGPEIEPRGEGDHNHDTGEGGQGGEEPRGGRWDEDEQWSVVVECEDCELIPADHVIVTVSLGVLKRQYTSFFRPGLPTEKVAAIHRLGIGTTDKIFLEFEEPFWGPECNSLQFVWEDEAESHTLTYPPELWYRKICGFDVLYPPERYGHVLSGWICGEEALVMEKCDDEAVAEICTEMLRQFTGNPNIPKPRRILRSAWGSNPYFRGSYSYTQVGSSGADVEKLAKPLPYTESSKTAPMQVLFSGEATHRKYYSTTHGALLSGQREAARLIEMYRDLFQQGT
Description for BGC-823: Antiproliferative activity against human BGC-823 cells assessed as inhibition of cell growth incubated for 72 hrs by MTT assay
Description for MGC-803: Antiproliferative activity against human MGC-803 cells assessed as inhibition of cell growth incubated for 72 hrs by MTT assay
Description for SGC-7901: Antiproliferative activity against human SGC-7901 cells assessed as inhibition of cell growth incubated for 72 hrs by MTT assay

The term IC50 denotes the concentration at which inhibition is half-maximal. In general, inhibition refers to the percentage by which the read-out fell short of the control. Read a low inhibition as a response near the control. Turning to `Nc1n[nH]c(NCc2c(Cl)cccc2Oc2ccc(-c3ccccc3)cc2)n1`, the IC50 is > 100000 nM in the test with BXPC-3, 25700 nM on Spermine oxidase and 61500 nM with MIA PaCa-2. For the same molecule, in test [1], the inhibition was found to be 52.1%.

With `CN(C)CCCNc1nc(NC2CCN(Cc3ccccc3)CC2)c2ccccc2n1`, in test [2], the IC50 worked out at 41300 nM.

`COc1cc2nc(NCCCN(C)C)nc(NC3CCN(Cc4ccccc4)CC3)c2cc1OC` returned an IC50 in [2] of 778 nM.

As to `Cc1cc(Sc2nnnn2CCN(C)C)n2nc(SCc3ccc(Cl)cc3)nc2n1`, the 50% inhibitory concentration (IC50) in test [3] worked out at 11 nM; in the test with SGC-7901, 850 nM; in the test on BGC-823, 1000 nM; with MGC-803, 530 nM.

Consider `C=CC(=O)Nc1cc(Nc2nccc(-c3cn(C)c4ccccc34)n2)c(OC)cc1N(C)CCN(C)C` [OSIMERTINIB], for which, in the test with NCI-H1975, the concentration for half-maximal inhibition (IC50) came out at […].

Turning to `O=C(NO)c1ccc(CN2CCC(CN[C@@H]3C[C@H]3c3ccccc3)CC2)cc1`, the half-maximal inhibitory concentration (IC50) in the test with Jurkat was 15500 nM; in the test on K562, 16600 nM; in the test on THP-1, 16300 nM; in the test with MOLM-13, 1300 nM.

Turning to `CC/C(=C(/c1ccc(OCCN(C)C)cc1)c1ccc(OC(=O)N(C)CCN(C)C2CC2c2ccccc2)cc1)c1ccccc1` (stereo not drawn), the half-maximal inhibitory concentration (IC50) in the test with MCF7 is 28700 nM.

By GI50 is commonly meant the concentration that inhibits growth by half. In the case of `C#CCN(C)Cc1cccc(NC(=O)CCCCCCC(=O)NO)c1`, the IC50 with DU-145 turned out to be 420 nM. For the same molecule, the concentration for 50% growth inhibition (GI50) with PC-3 was 330 nM.
